Patent publication US11345666B2, “Phenyl and pyridinyl substituted imidazoles as modulators of RORγT” (Janssen Pharmaceutica NV, priority 2018, dated 2022)
pIC50, pKd: −log10 of the molar value.

Legend:
[1] = target: human RORγt ligand binding domain (RORγt LBD) (Homo sapiens (Human), UniProt P51449); test: RORγt ThermoFluor assay
Procedure, shortened: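 Thermal shift of His-tagged human RORγt LBD (0.065 mg/mL) with 60 μM 1,8-ANS in 100 mM Hepes pH 7.0, 10 mM NaCl, 2.5 mM GSH, 0.002% Tween-20, heated at 1° C./min. Compounds in 1:2 series from a 10 mM DMSO stock; KD estimated from ΔTm using protein unfolding thermodynamics.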

[2] = target: full-length human RORγt (Homo sapiens (Human), UniProt P51449); test: RORγt (full-length human) reporter assay, conditions A or B; type: cell-based; conditions: for pIC50: HEK293T cells, read-out: RORγt (FL) Reporter Assay A or B, IC50; for inhibition at 6 µM: read-out: RORγt (FL) Reporter Assay A or B, % inhibition @ 6 μM, 6 μM compound concentration; for inhibition at 2 µM: 2 μM compound concentration (**); for inhibition at 3 µM: 3 μM compound concentration (*)
full-length human RORγt, sequence (P51449 other isoform, or with tags, fused parts or gaps): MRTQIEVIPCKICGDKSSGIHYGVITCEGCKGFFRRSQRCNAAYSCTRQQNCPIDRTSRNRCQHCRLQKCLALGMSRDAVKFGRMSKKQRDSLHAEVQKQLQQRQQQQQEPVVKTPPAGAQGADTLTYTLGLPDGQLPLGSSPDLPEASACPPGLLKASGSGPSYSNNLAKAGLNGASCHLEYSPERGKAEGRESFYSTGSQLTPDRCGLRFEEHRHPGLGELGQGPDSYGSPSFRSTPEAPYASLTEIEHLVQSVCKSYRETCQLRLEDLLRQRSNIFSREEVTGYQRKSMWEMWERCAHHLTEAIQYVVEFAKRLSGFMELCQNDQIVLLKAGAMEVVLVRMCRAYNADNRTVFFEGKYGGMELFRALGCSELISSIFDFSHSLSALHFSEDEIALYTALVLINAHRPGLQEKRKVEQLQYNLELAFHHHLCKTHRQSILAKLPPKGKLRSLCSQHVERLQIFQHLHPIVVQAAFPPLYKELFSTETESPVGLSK
Procedure, shortened: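 HEK293T cells transiently co-transfected (PEI) with GAL4-DBD–RORγt, GAL4-firefly luciferase and CMV-Renilla reporters; condition A 35,000 cells/well, 170.5 ng DNA/well; condition B 8750 cells/well, 42.6 ng DNA/well.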

[3] = system: obese diabetic mice; conditions: cited from earlier work
[4] = read-out: RORγt (FL) Reporter Assay A or B, % inhibition

human RORγt ligand binding domain (RORγt LBD), sequence (P51449 other isoform, or with tags, fused parts or gaps): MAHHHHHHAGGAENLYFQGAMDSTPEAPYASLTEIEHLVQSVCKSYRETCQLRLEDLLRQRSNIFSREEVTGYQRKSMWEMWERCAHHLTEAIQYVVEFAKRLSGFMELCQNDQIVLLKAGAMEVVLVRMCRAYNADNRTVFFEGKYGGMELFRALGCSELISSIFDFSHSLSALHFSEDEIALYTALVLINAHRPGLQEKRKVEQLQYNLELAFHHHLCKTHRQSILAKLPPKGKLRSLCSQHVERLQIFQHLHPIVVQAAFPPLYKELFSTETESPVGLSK

| pKd [1] | pIC50 [2] | inhibition at 6 µM [2] | SMILES | other results |
| --- | --- | --- | --- | --- |
| 6.96 | 6.18 | 66% | CCc1nc(C(=O)NC[C@]2(O)CC[C@@H](S(C)(=O)=O)CC2)c(C#N)n1-c1ccc(CCC(F)(F)F)cc1OC(F)(F)F [Example 114, 5-Cyano-2-ethyl-N-(((1s,4s)-1-hydroxy-4-(methylsulfonyl)cyclohexyl)methyl)-1-(2-(trifluoromethoxy)-4-(3,3,3-trifluoropropyl)phenyl)-1H-imidazole-4-carboxamide] | – |
| 7.00 | 6.72 | 74% | CCc1nc(C(=O)NC[C@H]2CC[C@H](S(C)(=O)=O)CC2)c(C#N)n1-c1ccc(CCC(F)(F)F)cc1OC(F)(F)F [Example 115, 5-Cyano-2-ethyl-N-(((1r,4r)-4-(methylsulfonyl)cyclohexyl)methyl)-1-(2-(trifluoromethoxy)-4-(3,3,3-trifluoropropyl)phenyl)-1H-imidazole-4-carboxamide] | – |
| 5.30 | 5.52 | 30% | CCc1nc(C(=O)NC[C@H]2CC[C@H](S(C)(=O)=O)CC2)cn1-c1cnc(CCC(F)(F)F)cc1OC [Example 116, 2-Ethyl-1-(4-methoxy-6-(3,3,3-trifluoropropyl)pyridin-3-yl)-N-(((1r,4r)-4-(methylsulfonyl)cyclohexyl)methyl)-1H-imidazole-4-carboxamide] | – |
| 6.25 | 5.82 | 88% | CCc1nc(C(=O)NC[C@H]2CC[C@H](S(C)(=O)=O)CC2)c(C#N)n1-c1cnc(CCC(F)(F)F)cc1OC [Example 117, 5-Cyano-2-ethyl-1-(4-methoxy-6-(3,3,3-trifluoropropyl)pyridin-3-yl)-N-(((1r,4r)-4-(methylsulfonyl)cyclohexyl)methyl)-1H-imidazole-4-carboxamide] | – |
| 6.72 | 6.14 | 96% | CCc1nc(C(=O)NC[C@H]2CC[C@H](S(C)(=O)=O)CC2)c(C#N)n1-c1ncc(CCC(F)(F)F)cc1OC [Example 119, 5-Cyano-2-ethyl-1-(3-methoxy-5-(3,3,3-trifluoropropyl)pyridin-2-yl)-N-(((1r,4r)-4-(methylsulfonyl)cyclohexyl)methyl)-1H-imidazole-4-carboxamide] | – |
| 6.08 | 5.85 | 57% | CCc1nc(C(=O)NC[C@]2(O)CC[C@@H](S(C)(=O)=O)CC2)c(C#N)n1-c1ncc(CCC(F)(F)F)cc1OC [Example 120, 5-Cyano-2-ethyl-N-(((1s,4s)-1-hydroxy-4-(methylsulfonyl)cyclohexyl)methyl)-1-(3-methoxy-5-(3,3,3-trifluoropropyl)pyridin-2-yl)-1H-imidazole-4-carboxamide] | – |
| 6.52 | 5.77 | 76% | CCc1nc(C(=O)NC[C@]2(C#N)CC[C@@H](S(C)(=O)=O)CC2)c(C#N)n1-c1ncc(CCC(F)(F)F)cc1OC [Example 121, 5-Cyano-N-(((1s*,4s*)-1-cyano-4-(methylsulfonyl)cyclohexyl)methyl)-2-ethyl-1-(3-methoxy-5-(3,3,3-trifluoropropyl)pyridin-2-yl)-1H-imidazole-4-carboxamide] | – |
| 7.92 | 7.32 | – | CCc1nc(C(=O)NC[C@H]2CC[C@H](S(C)(=O)=O)CC2)c(C#N)n1-c1ncc(CC(C)(C)C(F)(F)F)cc1OC [Example 122, 5-Cyano-2-ethyl-1-(3-methoxy-5-(3,3,3-trifluoro-2,2-dimethylpropyl)pyridin-2-yl)-N-(((1r,4r)-4-(methylsulfonyl)cyclohexyl)methyl)-1H-imidazole-4-carboxamide] | inhibition at 2 µM [2, 4]: 101% |
| 7.51 | 6.62 | 102% | CCc1nc(C(=O)NC[C@]2(O)CC[C@@H](S(C)(=O)=O)CC2)c(C#N)n1-c1ncc(CC(C)(C)C(F)(F)F)cc1OC [Example 123, 5-Cyano-2-ethyl-N-(((1s,4s)-1-hydroxy-4-(methylsulfonyl)cyclohexyl)methyl)-1-(3-methoxy-5-(3,3,3-trifluoro-2,2-dimethylpropyl)pyridin-2-yl)-1H-imidazole-4-carboxamide] | – |
| 7.43 | 7.08 | 105% | CCc1nc(C(=O)NC[C@]2(C#N)CC[C@@H](S(C)(=O)=O)CC2)c(C#N)n1-c1ncc(CC(C)(C)C(F)(F)F)cc1OC [Example 124, 5-Cyano-N-(((1s*,4s*)-1-cyano-4-(methylsulfonyl)cyclohexyl)methyl)-2-ethyl-1-(3-methoxy-5-(3,3,3-trifluoro-2,2-dimethylpropyl)pyridin-2-yl)-1H-imidazole-4-carboxamide] | – |
| 8.74 | 7.96 | – | CCc1nc(C(=O)NC[C@H]2CC[C@H](S(C)(=O)=O)CC2)c(Cl)n1-c1ncc(CC(C)(C)C(F)(F)F)cc1OC [Example 125, 5-Chloro-2-ethyl-1-(3-methoxy-5-(3,3,3-trifluoro-2,2-dimethylpropyl)pyridin-2-yl)-N-(((1r,4r)-4-(methylsulfonyl)cyclohexyl)methyl)-1H-imidazole-4-carboxamide] | inhibition at 2 µM [2, 4]: 99% |
| 8.07 | 7.12 | 100% | CCc1nc(C(=O)NC[C@H]2CC[C@H](S(C)(=O)=O)CC2)c(C)n1-c1ncc(CC(C)(C)C(F)(F)F)cc1OC [Example 126, 2-Ethyl-1-(3-methoxy-5-(3,3,3-trifluoro-2,2-dimethylpropyl)pyridin-2-yl)-5-methyl-N-(((1r,4r)-4-(methylsulfonyl)cyclohexyl)methyl)-1H-imidazole-4-carboxamide] | – |
| 7.68 | 6.85 | 98% | CCc1nc(C(=O)NC[C@]2(O)CC[C@@H](S(C)(=O)=O)CC2)c(C)n1-c1ncc(CC(C)(C)C(F)(F)F)cc1OC [Example 127, 2-Ethyl-N-(((1s,4s)-1-hydroxy-4-(methylsulfonyl)cyclohexyl)methyl)-1-(3-methoxy-5-(3,3,3-trifluoro-2,2-dimethylpropyl)pyridin-2-yl)-5-methyl-1H-imidazole-4-carboxamide] | – |
| 7.43 | 6.51 | 105% | CCc1nc(C(=O)NC[C@]2(C#N)CC[C@@H](S(C)(=O)=O)CC2)c(C)n1-c1ncc(CC(C)(C)C(F)(F)F)cc1OC [Example 128, N-(((1s*,4s*)-1-Cyano-4-(methylsulfonyl)cyclohexyl)methyl)-2-ethyl-1-(3-methoxy-5-(3,3,3-trifluoro-2,2-dimethylpropyl)pyridin-2-yl)-5-methyl-1H-imidazole-4-carboxamide] | – |
| 7.35 | 6.89 | – | COc1cc(CC(C)(C)C(F)(F)F)ccc1-n1cc(C(=O)NC[C@H]2CC[C@H](S(C)(=O)=O)CC2)nc1C [Example 129, 1-(2-Methoxy-4-(3,3,3-trifluoro-2,2-dimethylpropyl)phenyl)-2-methyl-N-(((1r,4r)-4-(methylsulfonyl)cyclohexyl)methyl)-1H-imidazole-4-carboxamide] | inhibition at 0.22 µM ([2]; 0.22 μM compound concentration (******), read-out: RORγt (FL) Reporter Assay A or B, % inhibition): 47% |
| 7.19 | 6.27 | – | COc1cc(CC(C)(C)C(F)(F)F)ccc1-n1cc(C(=O)NC[C@]2(O)CC[C@@H](S(C)(=O)=O)CC2)nc1C [Example 130, N-(((1s,4s)-1-hydroxy-4-(methylsulfonyl)cyclohexyl)methyl)-1-(2-methoxy-4-(3,3,3-trifluoro-2,2-dimethylpropyl)phenyl)-2-methyl-1H-imidazole-4-carboxamide] | inhibition at 2 µM [2, 4]: 73% |
| 7.01 | 6.33 | – | Cc1nc(C(=O)NC[C@H]2CC[C@H](S(C)(=O)=O)CC2)cn1-c1ccc(CC(C)(C)C(F)(F)F)cc1OC(F)F [Example 131, 1-(2-(Difluoromethoxy)-4-(3,3,3-trifluoro-2,2-dimethylpropyl)phenyl)-2-methyl-N-(((1r,4r)-4-(methylsulfonyl)cyclohexyl)methyl)-1H-imidazole-4-carboxamide] | inhibition at 3 µM [2, 4]: 73% |
| 6.47 | 6.10 | – | Cc1nc(C(=O)NC[C@]2(O)CC[C@@H](S(C)(=O)=O)CC2)cn1-c1ccc(CC(C)(C)C(F)(F)F)cc1OC(F)F [Example 132, 1-(2-(Difluoromethoxy)-4-(3,3,3-trifluoro-2,2-dimethylpropyl)phenyl)-N-(((1s,4s)-1-hydroxy-4-(methylsulfonyl)cyclohexyl)methyl)-2-methyl-1H-imidazole-4-carboxamide] | inhibition at 3 µM [2, 4]: 87% |
| 8.02 | 7.43 | – | Cc1nc(C(=O)NC[C@H]2CC[C@H](S(C)(=O)=O)CC2)c(Cl)n1-c1ncc(CC(C)(C)C(F)(F)F)cc1OC(F)F [Example 133, 5-Chloro-1-(3-(difluoromethoxy)-5-(3,3,3-trifluoro-2,2-dimethylpropyl)pyridin-2-yl)-2-methyl-N-(((1r,4r)-4-(methylsulfonyl)cyclohexyl)methyl)-1H-imidazole-4-carboxamide] | inhibition at 3 µM [2, 4]: 72% |
| – | – | – | CC(=O)N1CCN(Cc2ccc(-c3ccc(C(O)(C(F)(F)F)C(F)(F)F)cc3)cc2)CC1 [SR1555] | body weight [3]: reduced; fat mass [3]: significant reduction; food intake [3]: modest reduction; insulin sensitivity [3]: improved |
